The values that follow come from US12516063B2, “Substituted 7-(methylamino)pyrazolo[1,5-a]pyrimidine-3-carboxamide derivatives for treating autoimmune diseases” (Eli Lilly and Company, priority 2020, dated 2026).

Test [1] relates to IFNα signaling through pSTAT1 in TF1 cells. Description: Inhibition of IFNα Signaling Through pSTAT1 in TF1 Cells. It is filed as cell-based. Conditions: Homo sapiens, TF-1, 1 hour pre-incubation, 10 ng/mL IFNα2 for 20 minutes, GeoMetric mean (SEM), read-out: IC50 (inhibition of p-Stat1 (Tyr701)). The protocol:
TF1 cells (ATCC, CL-2003) are grown in RPMI 1640 (GIBCO) supplemented with 10% dialyzed FBS, 0.1 mg/mL Ampicillin and 2 ng/mL granulocyte macrophage colony stimulating factor. TF1 cells (100 K per well) are seeded in a 96-well poly-D-lysine coated plates in serum-free DMEM and incubated overnight at 37° C. under 5% CO2. Example 1 is serially diluted in DMSO, added to the cells, and incubated at 37° C. for 1 hour. Cells are then stimulated with 10 ng/mL IFNα2 at 37° C. for 20 minutes. After removing the medium, the cells are lysed in buffer containing Halt protease and phosphatase inhibitor cocktail (Thermo Scientific #78441) at ambient temperature for 30 minutes. The amount of p-Stat1 (Tyr701) is quantified as light emission at 615 nm using the AlphaLISA SureFire Ultra p-Stat1 (Tyr701) assay kit (Perkin Elmer #ALSU-PST1-A50K) following the vendor's recommended protocol.

Test [2] addresses T1, pseudokinase domain (JH2) of human TYK2 (Homo sapiens, UniProt P29597).
T1 construct: The pseudokinase domain (JH2) of human JAK (Janus family of cytoplasmic tyrosine kinases) family tyrosine kinase 2 (TYK2); made in house
In words: TYK2-JH2 Tracer Binding Assay. The conditions noted are these: His-tagged TYK2-JH2 0.200 nM, Tracer 2.00 nM, 30 minutes, TR-FRET; n=1. The text has this: The pseudokinase domain (JH2) of human JAK (Janus family of cytoplasmic tyrosine kinases) family tyrosine kinase 2 (TYK2) (Genbank NP_003322) with an N-terminal His6 tag is expressed in baculovirus and purified by HisPur Ni-NTA affinity and Superdex 200 size-exclusion chromatography. The compound prepared in Preparation 11, a conjugate of Alexa Fluor 647 dye (Thermo Fisher Scientific) and a suitable TYK2 JH2 binder, is referred to herein as “the Tracer”. A 3 fold, 10 point serial dilution of compound, Example 1 and Example 2, are prepared in 100% DMSO and 50 nL/well transferred to a Proxiplate-384F white plate (PerkinElmer 6008280) using acoustic liquid handling. Control wells used to determine percent inhibition contained 100% DMSO (50 nL) and either assay buffer containing the Tracer (2.00 nM final concentration) (min, low FRET) or diluted TYK2-JH2 enzyme (0.200 nM final concentration) and the Tracer (2.00 nM final concentration) (max, high FRET). […] After 30 minutes, the plate is counted on a PerkinElmer Envision with the following settings: Excitation (340 nm), Tracer Emission (665 nm) and LanthaScreen Eu-anti-His Antibody Emission (615 nm). The ratio of Tracer Emission (665 nm) over LanthaScreen Eu-anti-His Antibody Emission (615 nm) is determined.

Test [3] has as its system IL-23 signaling (STAT3 phosphorylation) in Kit225 cells. Description: IL23 pSTAT3 AlphaLISA Assay. It is filed as cell-based. The conditions noted are these: 1 hour pre-incubation, IL23 25 ng/mL for 30 minutes, GeoMetric mean (SEM), read-out: relative IC50 (IL23 pSTAT3 AlphaLISA). The protocol:
IL2-dependent Kit225 cells (University of Texas MD Anderson Cancer Center) expressing endogenous IL23 receptors are stably transduced with the Lenti STAT3 Reporter linked to firefly luciferase (SABiosciences CLS-6028L). These cells are used to monitor TYK2 activity by quantifying gene expression caused by STAT3 phosphorylation following induction by IL23 in the presence of IL2 using AlphaLISA technology (TGR Biosciences ALSU-TST3-A50K). The cells are grown in RPMI 1640 (Gibco 22400) supplemented with 10% FBS (Invitrogen 10082), 1×Pen/Strep (Gibco 15140-122), 200 ng/ml Puromycin (Sigma P9620), and fresh 10 ng/ml recombinant human IL2 (R&D Systems 202-IL-50).
For assay preparation, cells are dispensed into Biocoat black poly-d-lysine coated clear bottom 384-well plates (Becton Dickinson Bio-Coat 35-4640) in DMEM (Sigma D5796) at 300,000 cells/well and allowed to incubate overnight at 37° C. Compounds solubilized in DMSO are serially diluted 1:3 to produce a 10-point concentration response curve (final DMSO=0.1%). Cells are pre-incubated with Example 1 for 1 hour at 37° C., then stimulated with IL23 (25 ng/mL final) for 30 minutes. […] The AlphaLISA reaction is performed following the vendor's recommended protocol, and the […] are measured using an Envision plate reader (Perkin Elmer).

In general, IC50 refers to the midpoint of a concentration-inhibition curve.

T1 sequence (P29597 589-875 limits assumed): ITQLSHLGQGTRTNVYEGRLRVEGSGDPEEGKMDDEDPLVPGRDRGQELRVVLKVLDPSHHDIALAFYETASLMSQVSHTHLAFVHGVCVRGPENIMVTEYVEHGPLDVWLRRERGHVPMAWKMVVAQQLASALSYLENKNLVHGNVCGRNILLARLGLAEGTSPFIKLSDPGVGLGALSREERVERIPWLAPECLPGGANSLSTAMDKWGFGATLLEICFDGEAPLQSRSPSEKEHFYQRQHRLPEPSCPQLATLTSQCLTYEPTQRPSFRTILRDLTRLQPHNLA

Turning to `CCOc1cccc(Nc2cc(NC)n3ncc(C(=O)N[C@@H]4CCN(C)C4=O)c3n2)n1` [Example 1, 5-[(6-Ethoxy-2-pyridyl)amino]-7-(methylamino)-N-[(3R)-1-methyl-2-oxo-pyrrolidin-3-yl]pyrazolo[1,5-a]pyrimidine-3-carboxamide], the IC50 in test [1] is 38 nM; in test [2] it was < 0.254 nM; in test [3], 29 nM.

Take `CNc1cc(Nc2cc(C)cc(C)n2)nc2c(C(=O)N[C@@H]3CCN(C)C3=O)cnn12` [Example 2, 5-[(4,6-Dimethyl-2-pyridyl)amino]-7-(methylamino)-N-[(3R)-1-methyl-2-oxo-pyrrolidin-3-yl]pyrazolo[1,5-a]pyrimidine-3-carboxamide]: the half-inhibitory concentration (IC50) was 84 nM in test [1], < 0.254 nM in test [2] and 60 nM in test [3].
